# In US20040235717A1, “Suppression of androgen receptor transactivation through new pathways to ar and ar coactivators and repressors” (priority 2001, published 2004):
# Entries after “also recorded” stand apart in the source; their conditions may differ.
# Legend:
# p21 expression = experiment: p21 promoter activity (luciferase) and p21 protein expression; assay type: cell-based; conditions: PC-3 cells; 10 nM DHT
# Experimental: (§1) 18. […] (A) Akt suppressed androgen/AR-induced p21 promoter activity. […] (B) Androgen/AR-induced PC-3(AR)6 apoptosis and p21 protein expression was blocked by Akt PC-3(AR)6 was transfected with pCDNA3, cAkt, or dAkt, as indicated, for 16 h. […] (C) AR-induced p21 protein expression was enhanced by dAkt in LNCaP cells. […] LNCaP stable transfection with dAkt was confirmed by western blot assay using phospho-Akt (Ser473) antibody. […] TPA was then added for another 24 h and cell apoptosis was determined by TUNEL assay. […] IGF-1 was added for another 30 min, followed by 10 nM TPA treatment for another 24 h. The apoptosis was determined by TUNEL assay. The data are means±s.d. from three independent experiments.
# [1] = system: wtAR, mtARt877a, PR, VDR, ER transactivation; experiment: Steroid receptor transactivation with Smad3 in DU145 cells (wtAR, mtARt877a, PR, VDR, ER); assay type: cell-based, human; conditions: for wtAR transactivation response to ligand: DHT 10 nM, HF 1 μM, E2 10 nM
# PI3K = PI3K activity assay using phosphatidylinositol as substrate; assay type: cell-based, human; conditions: LNCaP
# Experimental: (§2) 251. IL-6's effect on PI3K activity was tested. After serum starvation for 24 h, LNCaP, PC-3 or DU145 cells were treated with 50 μg/ml IL-6 for 30 minutes. The cells were then harvested. PI3K activity was measured by using phosphatidylinositol (PT) as a substrate. […] The transactivation was measured by CAT activity.
# 260. […] PI3K activity was measured using PI as a substrate.
# 265. PI3K activity was determined as previously described. Vlahos, C. J. et al, J. Biol. Chem. 269, 5241-5148 (1994).
# IL-6 protein expression = experiment: IL-6 secretion by LNCaP cells (ELISA); assay type: cell-based
# Experimental: 11. […] IL-6 secretion in the medium was determined by ELISA. […] LNCaP cells, were serum starved for 24 h. […] PI3K activity was measured using PI as a substrate. The origin (ori) of the chromatogram and PI3-phosphate (PI3P) were indicated.
# 259. […] The IL-6 protein level in the supernatants was then evaluated by BLISA.
# PSA mRNA expression = PSA mRNA expression in LNCaP cells, Northern blot; assay type: cell-based
# LNCaP cells = experiment: DHT/TPA-induced apoptosis in LNCaP cells, TUNEL assay; assay type: cell-based; conditions: for LNCaP cell apoptosis, agent per se: 10 nM DHT or 1 nM TPA alone
# Experimental: as §1
# (§3) 281. The TUNEL assay was performed to measure the cell apoptosis according to the standard procedures (Oncogene Research Products). At least 200 cells were scored for each sample and the data are means±s.d. from three independent experiments.
# AR transactivation [2] = experiment: AR transactivation, MMTV-CAT reporter in DU145 cells transfected with AR; assay type: cell-based, human
# From the text: 250. To dissect the divergent effects of IL-6 in prostate tumor growth, Qui, Y. et al., Nature 393, 83-85 (1998); Hobisch, A. et al., Cancer Res. 58, 4640-4645 (1998); Ritchie, C. K. et al., Endocrinology 138, 1145-1150 (1997), the potential influences of IL-6 on the transactivation of AR, the master regulator of the prostate tumor growth were studied. Chang, C. et al., Science 240, 324.326 (1988); Chang, C. et al., Crit. Rev. Eukaryotic Gene Expression 5, 97-125 (1995). Because IL-6 has two major signal cascades, mitogen-activated protein kinase (MAPK) and phosphatidylinositol 3-kinase (PI3K), Qui, Y. et al., Nature 393, 83-85 (1998); Qui, Y. et al., Proc. Natl. Acad. Sci. USA 95, 3644-3649 (1998), inhibitors were applied to specifically block one of these two IL-6 signal pathways. DU145 cells were transfected for 24 h with AR and MMTV-CAT reporter gene. After transfection, the cells were serum starved for 24 h. Next, 20 μM LY294002, P098059 or vehicle was added to serum-free medium 30 min prior to IL-6 treatment. […] The cells were then harvested and AR transactivation was measured by CAT activity. […] Vlahos, C. J. et al., J. Biol. Chem. 269, 5241-5148 (1994). […] Alessi, D. R. et al., J. Biol. Chem. 270, 27489-27494 (1995).
# as §2
# 252. Focus then turned to the two major downstream effectors of PI3K: a serine/threonine kinase (Akt/PKB) and a ribosomal S6 kinase (p70S6k). Franke, T. F. et al., Cell 88,435-437 (1997). […] The transactivation activity was determined after 24 h transfection.
# 262. The DU145 and PC-3 cells were maintained in Dulbecco's Minimum Essential Medium (DMEM) containing penicillin (25 μg/m1), streptomycin (25 μg/ml), and 5% fetal calf serum (FCS). The LNCaP cells were maintained in RPMI-1640 with 10% FCS. Transfections were performed using the calcium phosphate precipitation method, as previously described. Yeh, S. et al., Proc. Natl. Acad. Sci. USA 93, 5517-5521(1996).
# 277. The DU145 and PC-3 cells were maintained in Dulbecco's Minimum Essential Medium (DMEM) containing penicillin (25 U/ml), streptomycin (25 μg/ml), and 5% fetal calf serum (FCS). The LNCaP cells were maintained in RPMI-1640-10% FCS. Transfections were performed using the calcium phosphate precipitation method in PC-3 and DU145, as previously described. Yeh, S., Lin, H. K., Kang, H. Y., Thin, T. H., Lin, M. F. & Chang, C. (1999) Proc Natl Acad Sci U S A 96, 5458-63. LNCaP cells were transfected using SuperFect™ according to standard procedures (Qiagen).
# AR transactivation [3] = experiment: AR transactivation with TSA, MMTV-LUC in PC3-AR2 cells; assay type: cell-based
# [4] = system: PC-3(AR)2, PC-3(AR)6, SAR-91 cells; experiment: Androgen/AR-induced apoptosis, TUNEL assay in PC-3(AR)2, PC-3(AR)6 and SAR-91 cells; assay type: cell-based; conditions: HF 5 μM, IGF-1 100 ng/ml, DHT 10 nM, 3 days
# From the text: 17. […] (A) PC-3(AR)2 and PC-3(AR)6 expressed AR protein. PC-3 cells were stably transfected with AR, followed by selection with hygromycin B, and confirmed by western blotting using AR antibody NH27, while LNCaP was used as a positive control. (B) Androgen/AR-induced apoptosis in PC-3(AR)2, PC-3(AR)6, and SAR-91 were inhibited by PI(3)K/Akt pathway. […] The data are means±s.d. from three independent experiments.
# as §1, §3
# AR protein levels = experiment: AR protein (Western blot) and AR mRNA (Northern blot) levels; assay type: cell-based; conditions: LNCaP, transfected
# AR transactivation [5] = experiment: AR transactivation, MMTV-luc / (ARE)4-luc luciferase reporter assay; assay type: cell-based; conditions: LNCaP MMTV-luc and CWR22 (ARE)4-luc
# Akt / AR phosphorylation = experiment: Akt activation and in vivo AR phosphorylation in COS-1 cells; assay type: cell-based
# Experimental: 14. […] COS-1 cells were pretreated with ethanol or 20 μM LY294002 for 30 min, followed by treatment with 100 ng/ml IGF-1 for 30 min. The total cell lysates were immunoprecipitated by anti-Akt antibody (New England Biolabs). The immunocomplex was subjected to SDS-PAGE, followed by immunoblot with phospho-Akt (S473) antibody or Akt antibody. (B) IGF-1 phosphorylates AR in vivo via Akt. COS-1 cells were cultured in [^32P]-PO4-containing medium. AR immunocomplex was subjected to SDS-PAGE followed by autoradiography. Immunobloting confirmed equivalent amounts of AR in immunocomplex. (C) cAkt, but not dAkt, phosphorylates wtAR, but not mtAR S210A and mtAR S790A in vivo. COS-1 cells were transfected with wtAR, mtAR S210A, or mtAR S790A in combination with PCDNA3 vector, cAkt, or dAkt. After 24 h transfection, cells were labeled with [^32P]-PO4 for 4 h. (D) Suppression of AR transactivation by Akt in a dose-dependent manner. […] Transactivation was measured by CAT activity using MMTV-CAT as a reporter. (E) mtAR S210A is resistant to Akt suppressive effect on AR transactivation. DU145 cells were transfected with plasmids encoding wtAR, mtAR S210A or mtAR S790A in presence of cAkt or dAkt for 24 h. Ligand treatment and AR transactivation were performed as previously described. The data are means±s.d. from three independent experiments.
# 282. […]
compound,measurement,setting,value
"C[C@]12CCC(=O)C[C@@H]1CC[C@@H]1[C@@H]2CC[C@]2(C)[C@@H](O)CC[C@@H]12 [DHT, 5α-dihydrotestosterone, reference compound]",p21 promoter activity,p21 expression,induce p21 promoter activity
same,wtAR transactivation response to ligand,[1],responded well
same,IL-6-induced PI3K activity,PI3K; DHT and IL-6 for 30 min,repress PI3K activity significantly
same,IL-6 protein expression,"IL-6 protein expression; 0, 1, 10 or 50 nM DHT 24 h, then 160 nM PMA 24 h",reduced by DHT in a dose-dependant manner
same,PSA mRNA expression,PSA mRNA expression; 10 nM DHT,induced PSA mRNA expression; also recorded: increases PSA mRNA expression
same,"LNCaP cell apoptosis, agent per se",LNCaP cells,only marginal effects on apoptosis
IL-6: a pleiotropic cytokine,Effect of IL-6 on AR transactivation (CAT activity),AR transactivation [2]; MAPK pathway inhibited by 20 μM P098059 30 min prior to IL-6,repress AR transactivation
same,Effect of IL-6 on AR transactivation (CAT activity),AR transactivation [2]; PI3K pathway inhibited by 20 μM LY294002 30 min prior to IL-6,enhance AR transactivation
same,Effect of IL-6 on AR transactivation (CAT activity),"AR transactivation [2]; none of the MAPK and PI3K pathways blocked, DHT 24 h",very limited effect
same,PI3K activity,"PI3K; PC-3, DU145 cells, 50 μg/ml IL-6 for 30 min",increase PI3K activity
CCCC(=O)[O-].[Na+] [NaB],Effect on Smad3/Smad4-suppressed AR transactivation,AR transactivation [3],reverse Smad3/Smad4-repressed AR transactivation
"CC(C)(O)C(=O)Nc1ccc([N+](=O)[O-])c(C(F)(F)F)c1 [HF, hydroxyflutamide]",mtARt877a transactivation response to ligand,[1],responded much better
same,wtAR transactivation response to ligand,[1],respond marginally
same,Effect on DHT repression of IL-6 protein expression,IL-6 protein expression,reverse this induction
same,Effect on Smad3-enhanced PSA induction,PSA mRNA expression,partially repressed
same,Effect on DHT/TPA-induced apoptosis,LNCaP cells; LNCaP parent cells,repress this DHT/TPA-mediated apoptosis
same,Effect on androgen-induced apoptosis,[4],inhibition of androgen-induced apoptosis
"PTEN-PTP: PTEN peptide (aa, 110-163) containing the phosphatase domain (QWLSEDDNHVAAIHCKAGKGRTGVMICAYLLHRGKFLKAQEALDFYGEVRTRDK; left off: a dimerising Fc or GST)",AR degradation,AR protein levels,promote AR degradation
same,Effect on AR transactivation,AR transactivation [5],suppress of AR transactivation
"CCCCCCCCCCCCCC(=O)O[C@@H]1[C@@H](C)[C@@]2(O)[C@@H](C=C(CO)C[C@]3(O)C(=O)C(C)=C[C@@H]23)[C@H]2C(C)(C)[C@]12OC(C)=O [TPA, 12-0-tetradecanoyl phorbol-13-acetate]","LNCaP cell apoptosis, agent per se",LNCaP cells,only marginal effects on apoptosis
IGF-1: insulin-like growth factor-1,Akt activation (phospho-Akt S473),Akt / AR phosphorylation; 100 ng/ml IGF-1 30 min,Activation of Akt
same,AR phosphorylation in vivo,Akt / AR phosphorylation; [32P] labeling,strongly induced AR phosphorylation
same,Effect on DHT/TPA-induced apoptosis,LNCaP cells; LNCaP cells stably transfected with dAkt,only marginal suppressive effects
same,Effect on DHT/TPA-induced apoptosis,LNCaP cells; LNCaP parent cells,partially repressed DHT/TPA-induced apoptosis
same,Effect on androgen-induced apoptosis,[4],repress androgen-induced apoptosis
